For orientation: IC50 means the midpoint of a concentration-inhibition curve.

Experiment [1] concerns the target BChE (EC 3.1.1.8, equine serum) (Equus caballus, UniProt P81908). In words: biochemical. Particulars: for IC50: Ellman's method, 5 min pre-incubation at 4 °C, triplicate. In kind it is biochemical. (Ellman's reagent forms a yellow product with free thiols.)
Experiment [2] concerns the target AChE (EC 3.1.1.7, Electrophorus electricus) (Electrophorus electricus, UniProt O42275). Description: biochemical. It is filed as biochemical. To be noted: for IC50: Ellman's method, 5 min pre-incubation at 4 °C, triplicate.
The subject of another experiment is TNFα production. Particulars: cited from earlier work; for anti-inflammatory activity: previous series.
Another experiment has as its system BChE. Also noted: method as in PMID 35870364, PMID 35228009. To be noted: previous research; cited from earlier work.

Sequence of BChE (EC 3.1.1.8, equine serum) (P81908 whole entry): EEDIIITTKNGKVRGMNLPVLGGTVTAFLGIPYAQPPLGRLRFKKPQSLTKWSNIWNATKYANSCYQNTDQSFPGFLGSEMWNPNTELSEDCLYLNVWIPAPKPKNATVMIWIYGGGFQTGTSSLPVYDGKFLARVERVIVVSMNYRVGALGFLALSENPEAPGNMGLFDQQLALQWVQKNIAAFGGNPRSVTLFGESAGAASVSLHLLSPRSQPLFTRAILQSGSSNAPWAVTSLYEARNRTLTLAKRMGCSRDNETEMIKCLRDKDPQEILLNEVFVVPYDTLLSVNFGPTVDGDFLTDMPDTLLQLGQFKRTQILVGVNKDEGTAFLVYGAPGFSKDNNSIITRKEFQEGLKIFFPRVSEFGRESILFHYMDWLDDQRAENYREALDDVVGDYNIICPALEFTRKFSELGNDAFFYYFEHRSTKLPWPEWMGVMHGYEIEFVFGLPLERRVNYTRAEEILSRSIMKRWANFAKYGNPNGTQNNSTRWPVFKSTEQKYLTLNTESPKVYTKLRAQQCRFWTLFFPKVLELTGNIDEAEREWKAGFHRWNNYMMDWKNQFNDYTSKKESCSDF
Sequence of AChE (EC 3.1.1.7, Electrophorus electricus) (O42275 24-633): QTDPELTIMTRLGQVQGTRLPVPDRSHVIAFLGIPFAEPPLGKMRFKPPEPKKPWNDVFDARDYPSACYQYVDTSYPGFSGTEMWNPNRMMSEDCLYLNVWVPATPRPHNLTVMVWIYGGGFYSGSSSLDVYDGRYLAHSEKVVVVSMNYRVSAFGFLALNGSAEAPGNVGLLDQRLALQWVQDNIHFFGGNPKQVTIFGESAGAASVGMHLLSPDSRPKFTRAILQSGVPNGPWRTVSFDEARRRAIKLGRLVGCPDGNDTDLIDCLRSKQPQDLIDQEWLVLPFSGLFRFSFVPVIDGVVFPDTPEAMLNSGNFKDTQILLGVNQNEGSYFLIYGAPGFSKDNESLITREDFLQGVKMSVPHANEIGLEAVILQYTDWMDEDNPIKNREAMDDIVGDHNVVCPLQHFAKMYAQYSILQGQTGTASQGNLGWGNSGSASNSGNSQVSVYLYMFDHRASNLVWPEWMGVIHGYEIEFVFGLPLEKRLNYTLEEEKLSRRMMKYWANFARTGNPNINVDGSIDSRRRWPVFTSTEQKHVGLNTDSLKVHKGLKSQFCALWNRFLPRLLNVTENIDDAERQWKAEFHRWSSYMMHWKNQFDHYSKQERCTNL

With `CC(C)n1nnc2ccc3ccc(Cl)cc3c21` [Compound 1], the IC50 came out at 39.6 µM in experiment [1] and 59.9 µM in experiment [2]. Moreover, the anti-inflammatory activity entry in the experiment on TNFα production is given as “ten times weaker anti-inflammatory activity than 2”.
In the case of `COc1ccc(Cn2nnc3ccc4ccc(OC)cc4c32)cc1` [Compound 2], the “inhibitory activity toward BChE (in words)” value in experiment [1] (final concentrations 10–500 μM) is “no inhibitory activity”. Further, the “inhibitory activity toward AChE (in words)” value in experiment [2] (final concentrations 10–500 μM) is “no inhibitory activity”. Also, the anti-inflammatory activity result in the experiment on TNFα production was “best anti-inflammatory activity of all the tested compounds”.
In the case of `COc1ccc(Cn2nnc3ccc4sccc4c32)cc1` [Compound 3, 1-(4-methoxybenzyl)-1H-thieno[3′,2′:3,4]benzo[1,2-d][1,2,3]triazole], the half-maximal inhibitory concentration (IC50) in experiment [1] came to 25.5 µM; in experiment [2] it was 116 µM.
The like results for `Fc1ccc(Cn2nnc3ccc4sccc4c32)cc1` [Compound 4, 1-(4-fluorobenzyl)-1H-thieno[3′,2′:3,4]benzo[1,2-d][1,2,3]triazole] were, in that order, 37.5 µM and 97 µM.
For `c1csc(Cn2nnc3ccc4sccc4c32)c1` [Compound 5, 1-(thiophen-2-ylmethyl)-1H-thieno[3′,2′:3,4]benzo[1,2-d][1,2,3]triazole], the IC50 in experiment [1] came out at 23.4 µM; in experiment [2], 119 µM.
In the case of `CCOC(=O)CCn1nnc2ccc3sccc3c21` [Compound 6, Ethyl 3-(1H-thieno[3′,2′:3,4]benzo[1,2-d][1,2,3]triazol-1-yl)propanoate], in experiment [1], half-maximal inhibition (IC50) required 39.6 µM.
On to `FC(F)(F)c1ccc(Cn2nnc3ccc4sccc4c32)cc1` [Compound 7, 1-(4-(trifluoromethyl)benzyl)-1H-thieno[3′,2′:3,4]benzo[1,2-d][1,2,3]triazole], for which the IC50 in experiment [1] was above 150 µM; in experiment [2] it was 140 µM.
The like results for `FC(F)(F)Oc1ccc(Cn2nnc3ccc4sccc4c32)cc1` [Compound 8, 1-(4-(trifluoromethoxy)benzyl)-1H-thieno[3′,2′:3,4]benzo[1,2-d][1,2,3]triazole] were, in that order, 214 µM and 68 µM.
In the case of `COc1ccc(CCn2nnc3ccc4sccc4c32)cc1` [Compound 9, 1-(4-methoxyphenethyl)-1H-thieno[3′,2′:3,4]benzo[1,2-d][1,2,3]triazole], in experiment [1], half-maximal inhibition (IC50) was put at 18.6 µM.
Same read-out and setting: next, `OCCCCn1nnc2ccc3sccc3c21` [Compound 12, 4-(1H-thieno[3′,2′:3,4]benzo[1,2-d][1,2,3]triazol-1-yl)butan-1-ol]: 107 µM; `Fc1ccc(Cn2nnc3c2-c2ccsc2CC3)cc1` [Compound 13, 1-(4-fluorobenzyl)-4,5-dihydro-1H-thieno[3′,2′:3,4]benzo[1,2-d][1,2,3]triazole]: 58 µM.
For `FC(F)(F)c1ccc(Cn2nnc3c2-c2ccsc2CC3)cc1` [Compound 14, 1-(4-(trifluoromethyl)benzyl)-4,5-dihydro-1H-thieno[3′,2′:3,4]benzo[1,2-d][1,2,3]triazole], the IC50 in experiment [1] is above 150 µM; in experiment [2], 118 µM.
`FC(F)(F)Oc1ccc(Cn2nnc3c2-c2ccsc2CC3)cc1` [Compound 15, 1-(4-(trifluoromethoxy)benzyl)-4,5-dihydro-1H-thieno[3′,2′:3,4]benzo[1,2-d][1,2,3]triazole] had an IC50 in experiment [2] of 88.7 µM.
Take `COc1ccc(CCn2nnc3c2-c2ccsc2CC3)cc1` [Compound 16]: the results for the IC50 in experiment [1] and in experiment [2] were 119 µM and 145 µM, respectively.
`c1cc2c(s1)CCc1nnn(CCN3CCOCC3)c1-2` [Compound 17, 4-(2-(4,5-dihydro-1H-thieno[3′,2′:3,4]benzo[1,2-d][1,2,3]triazol-1-yl)ethyl)morpholine] displayed a 50% inhibitory concentration (IC50) in experiment [2] of 45.6 µM.
`OCCCCn1nnc2c1-c1ccsc1CC2` [Compound 19, 4-(4,5-dihydro-1H-thieno[3′,2′:3,4]benzo[1,2-d][1,2,3]triazol-1-yl)butan-1-ol]: inhibition in experiment [1] was half-maximal at 74.1 µM (IC50).
Consider `COc1ccc2c3c1O[C@H]1C[C@@H](O)C=C[C@@]31CCN(C)C2` [Galantamine, galantamine], for which the half-inhibitory concentration (IC50) with BChE is 7.9 µM.
As to `C=CCn1nnc2ccc3sccc3c21` [structure C, reference compound], in the experiment on BChE, the IC50 is 3.8 µM. Also, the TNFα production inhibition result in the experiment on TNFα production (LPS-stimulated human PBMCs) is “good TNFα production inhibition”.

Values taken from paper PMC10059756, “New Thienobenzo/Naphtho-Triazoles as Butyrylcholinesterase Inhibitors: Design, Synthesis and Computational Study” (International Journal of Molecular Sciences, 2023).
